Consider eleven compounds from ChEMBL document CHEMBL1201862, “PubChem BioAssay data set” (2004).

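Five compound concentrations were applied to cells in 96-well plates for 48 hours; endpoints were derived by simple linear interpolation of the resulting dose-response curve. At the GI50, growth is halved.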 Calls of active or inactive are those of the source. Cut-off read from the data, not from the text of the source: active = GI50 up to about 1.1 µM and inactive = higher.

Test in all cases: inhibition of tumour cell growth, NCI panel, 48 h
Test [1] relates to SF-539.
The subject of test [2] is UACC-257.
Test [3] has as its system UO-31.
Test [4] concerns HCT-15.
Test [5] concerns KM12.
In test [6] the test system is HCT-116.
Test [7] deals with HCC 2998.
Test [8] deals with K562.
The test system of test [9] is A498.
The subject of test [10] is NCI-H226.
Test [11] deals with ACHN.
Test [12] has as its system SF-268.
The subject of test [13] is HT-29.
Test [14] has as its system CAKI-1.
For test [15], the system named is CCRF-CEM.
The test system of test [16] is NCI-H460.
Test [17] has as its system SK-MEL-2.
Test [18] concerns OVCAR-3.
Test [19] concerns SK-MEL-28.
Test [20] has as its system EKVX.

Regarding `O=C(O)/C(O)=C1/C=C(c2ccccc2)c2ccccc21`, the GI50 was 29.9 µM (inactive) in test [1]; 20.8 µM (inactive) in test [2]; 19.3 µM (inactive) in test [3]; 22.2 µM in test [4]; 17.8 µM (inactive) in [5]; 19.6 µM (inactive) in test [6]. Further, the GI50 is 21.5 µM (inactive) in [7]; 26.1 µM (inactive) in test [8]; 31.7 µM (inactive) in [9]; 21.6 µM (inactive) in test [10]; 30.1 µM (inactive) in test [11]; 22 µM (inactive) in test [12]. Also, the GI50 in test [13] was 33.1 µM (inactive); in test [14], 31.4 µM (inactive); in [15], 18.7 µM (inactive); in test [16], 26.4 µM (inactive); in test [17] it was 16.7 µM (inactive).
Take `O=C(O)C(SC(=S)c1ccc(C(=S)SC(C(=O)O)c2ccccc2)cc1)c1ccccc1` (configuration not stated): the GI50 was > 100 µM (inactive) in [1]; > 100 µM (inactive) in test [2]; 92.7 µM (inactive) in [3]; 56.5 µM (inactive) in test [18]; 42.2 µM in test [4]; > 100 µM (inactive) in [5]. For the same compound, the GI50 in test [6] was > 100 µM (inactive); in test [7], > 100 µM (inactive); in test [8], 44.5 µM (inactive); in test [9], 69.8 µM (inactive); in test [10], 55.5 µM (inactive); in test [11] it was > 100 µM (inactive). Besides, the GI50 in test [19] was 99.3 µM (inactive); in test [12], 97.3 µM (inactive); in test [13], 67.1 µM (inactive); in test [15], > 100 µM (inactive); in [16], > 100 µM (inactive); in test [17], > 100 µM (inactive).
As to `COc1ccc(-c2cc(N3CCN(c4ccccc4)CC3)c(C#N)c(=O)o2)cc1`, the GI50 was 11.3 µM (inactive) in [1]; 50.1 µM (inactive) in test [2]; 13.2 µM (inactive) in test [3]; 65.2 µM in test [4]; > 100 µM (inactive) in [5]; 62.8 µM (inactive) in [6]. For the same compound, the GI50 in [20] is 23.8 µM (inactive); in test [7], 65.6 µM (inactive); in test [8] it was 61 µM (inactive); in [9] it was 26.9 µM (inactive); in test [10] it was 7.74 µM (inactive); in [11] it was 28.6 µM (inactive). In addition, the GI50 in test [19] is 15.6 µM (inactive); in [12], 8.55 µM (inactive); in test [13], > 100 µM (inactive); in test [14] it was 16.7 µM (inactive); in test [15], 98.4 µM (inactive); in test [16], 26.5 µM (inactive). In test [17], the GI50 was 18.8 µM (inactive).
On to `CC(Cc1ccccc1)NC1=NCCO1` (configuration not stated), for which the GI50 is 14 µM (inactive) in test [1]; 23.6 µM (inactive) in [3]; 96.4 µM in [4]; 18 µM (inactive) in test [6]; 54 µM (inactive) in [20]; 27.6 µM (inactive) in test [7]. Moreover, the GI50 is 29.8 µM (inactive) in [9]; > 100 µM (inactive) in test [10]; 46 µM (inactive) in test [11]; 20.1 µM (inactive) in test [13]; > 100 µM (inactive) in [14]; 17.9 µM (inactive) in test [16]. Moreover, in [17], the GI50 is 39.6 µM (inactive).
In the case of `O=C1CCCC1C(O)(C(F)(F)Cl)C(F)(F)Cl` (configuration not stated), the GI50 in [1] is > 10 µM (inactive); in test [2] it was > 10 µM (inactive); in test [18], > 10 µM (inactive); in test [4], > 10 µM; in [5] it was > 10 µM (inactive); in test [6] it was > 10 µM (inactive). Moreover, the GI50 in test [20], in [7], in test [8], in [9], in test [10] and in test [11] was > 10 µM (inactive) in each case. Besides, the GI50 in test [19], in test [12], in test [13], in test [14], in test [15] and in test [16] was > 10 µM (inactive) each time. Moreover, the GI50 in [17] is > 10 µM (inactive).
As for `CC(=O)c1ccc(NC(=O)/C(CC(=O)/C=C/c2ccccc2)=N/NC(N)=S)cc1`, the GI50 in [1] was > 100 µM (inactive); in [2] it was > 100 µM (inactive); in test [3], 41.1 µM (inactive); in test [18], > 100 µM (inactive); in test [4], 60.5 µM; in test [5], 44.4 µM (inactive). Moreover, the GI50 is > 100 µM (inactive) in [6]; 47.2 µM (inactive) in test [20]; > 100 µM (inactive) in test [7]; 75.3 µM (inactive) in [8]; > 100 µM (inactive) in test [9]; > 100 µM (inactive) in [10]. Also, the GI50 in [11] was 66.1 µM (inactive); in [19], > 100 µM (inactive); in test [12] it was > 100 µM (inactive); in test [13], 41.5 µM (inactive); in [14], > 100 µM (inactive); in test [16] it was 68.4 µM (inactive). Also, the GI50 in test [17] is > 100 µM (inactive).
As for `CSc1nc2c(nc(N)n2C2OCC(O)C(O)C2O)c(=O)[nH]1` (configuration not stated), the GI50 in test [1], in [2], in test [3], in test [18], in test [5] and in test [6] was > 100 µM (inactive) in each case. The GI50 in test [20], in test [7], in test [8], in test [9], in test [10] and in test [11] was > 100 µM (inactive) throughout. Moreover, the GI50 in test [19], in test [12], in test [13], in test [14], in test [15] and in test [16] was > 100 µM (inactive) each time.
As for `N#CC(C#N)=C1CCC2C(=C(C#N)C#N)CCC12` (configuration not stated), the GI50 in test [1] is > 100 µM (inactive); in test [2] it was > 100 µM (inactive); in [3], > 100 µM (inactive); in [18], > 100 µM (inactive); in test [4] it was > 100 µM; in test [5], > 100 µM (inactive). For the same compound, the GI50 in [6], in [20], in test [7], in test [8], in [9] and in [10] was > 100 µM (inactive) throughout. Also, the GI50 in test [12], in test [13], in [14], in [15] and in test [16] was > 100 µM (inactive) each time.
`C=C=C(Sc1ccccc1)C(C)(C)OC(C)=O`: the GI50 in test [1] was 16.1 µM (inactive); in test [2] it was 17.2 µM (inactive); in test [3] it was 14.2 µM (inactive); in test [18], 16.3 µM (inactive); in [4], 20.6 µM; in test [5], 16 µM (inactive). Further, the GI50 in test [6] is 13.9 µM (inactive); in test [7] it was 20.9 µM (inactive); in test [8], 22.1 µM (inactive); in test [9], 19 µM (inactive); in test [10], 21.4 µM (inactive); in test [11] it was > 10 µM (inactive). The GI50 in [19] was 17.1 µM (inactive); in [12], 13.9 µM (inactive); in test [13] it was 18.7 µM (inactive); in [14], 34.9 µM (inactive); in test [15], 20.2 µM (inactive); in [16], 21.1 µM (inactive). Besides, the GI50 in test [17] is 17.9 µM (inactive).
As to `NC(CP(=O)(O)O)C(=O)O` (configuration not stated), the GI50 in test [2] was > 100 µM (inactive); in test [3], > 100 µM (inactive); in test [18] it was > 100 µM (inactive); in test [4], > 100 µM; in test [5], > 100 µM (inactive); in [6], > 100 µM (inactive). The GI50 in test [20], in test [7], in test [8], in [9], in test [10] and in test [11] was > 100 µM (inactive) throughout. Also, the GI50 in [19], in test [12], in test [13], in [14], in [15] and in test [16] was > 100 µM (inactive) throughout. In test [17], the GI50 was > 100 µM (inactive).
In the case of `Nc1ccc(S(=O)(=O)c2ccc(NCN3C(=O)NC(=O)C(=O)C3=O)cc2)cc1` [ALLANTODAPSONE], the GI50 in test [2] is > 100 µM (inactive); in [3], > 100 µM (inactive); in test [18], > 100 µM (inactive); in test [4] it was > 100 µM; in test [5] it was > 100 µM (inactive); in test [6], > 100 µM (inactive). Further, the GI50 in [20], in test [7], in [8], in test [9], in [10] and in [11] was > 100 µM (inactive) throughout. The GI50 in [19] is > 100 µM (inactive); in [12] it was > 100 µM (inactive); in test [13] it was > 100 µM (inactive); in test [14], > 100 µM (inactive); in [15], 95.7 µM (inactive); in test [16], > 100 µM (inactive). In [17], the GI50 was > 100 µM (inactive).
